System: choroidal neovascularization
Test: laser-induced rat choroidal neovascularization model
Format: in vivo
Experimental: Usefulness of the present compounds was evaluated using a laser-induced rat choroidal neovascularization model (Invest. Ophthalmol. Vis. Sci., 40(2), 459-466 (1999)).
A rat was generally anesthetized by intramuscular administration of 1 mL/kg of a mixed solution (7:1) comprising a 5% (W/V) ketamine hydrochloride injection solution and a 2% xylazine hydrochloride injection solution. 0.5% (W/V) Tropicamide-0.5% phenylephrine hydrochloride eye drop was dropped into eyes for mydriasis, and photocoagulation was carried out with a krypton laser photocoagulation apparatus. […]
At the 7th day after the photocoagulation, the rat was generally anesthetized by intramuscular administration of 1 mL/kg of a mixed solution (7:1) comprising a 5% (W/V) ketamine hydrochloride injection solution and a 2% xylazine hydrochloride injection solution. […] The spot of photocoagulation with no leakage of fluorescence detected by fluorescein fundus angiography was judged as negative (no neovascularization), and the spot of photocoagulation with leakage of fluorescence was judged as positive. The spot of photocoagulation with slight leakage of fluorescence was judged as positive (neovascularization exists) when 2 or more spots of such a state were detected in one eye. […]

For `CC(=O)N[C@@H]1C[C@H](NC(C)(C)C)CC[C@@H]1N1CC[C@H](Nc2ncnc3cc(C(C)(C)C)nn23)C1=O` [Compound 1b, N-((1R,2S,5R)-5-(tert-butylamino)-2-((S)-3-(7-tert-butylpyrazolo[1,5-a][1,3,5]triazin-4-ylamino)-2-oxopyrrolidin-1-yl)cyclohexyl)acetamide], the “Suppressing rate (%)” value (krypton laser-induced rat choroidal neovascularization, 100 mg/kg orally twice a day for 7 days, fluorescein fundus angiography at 7th day, relative to base administered group) was 66.6% and the “inhibition of choroidal neovascularization (in words)” value (laser-induced rat choroidal neovascularization model animal) was “inhibit choroidal neovascularization”.

From patent US20170202845A1, “PROPHYLACTIC OR THERAPEUTIC AGENT FOR A POSTERIOR OCULAR DISEASE” (SANTEN PHARMACEUTICAL CO., LTD., priority 2014, published 2017)
